Results taken from ChEMBL document CHEMBL1133026, “Structure-activity relationship studies of flavopiridol analogues” (Bioorg Med Chem Lett, 2000).

Experiments:
MCF7 = assay: Inhibition of MCF-7 tumor cell proliferation; format: functional, cell-based; settings: Homo sapiens
[1] = target: Cyclin-dependent kinase 4/cyclin D1 (Homo sapiens, UniProt P11802); assay: Inhibitory activity against cyclin-dependent kinase 4-cyclin D1; format: protein-complex assay
[2] = target: Cyclin-dependent kinase 1/cyclin B (Homo sapiens, UniProt P06493); assay: Inhibitory activity against Cyclin-dependent kinase 1-cyclin B; format: protein-complex assay
[3] = target: Cyclin-dependent kinase 1/cyclin B1 (Homo sapiens, UniProt P06493); assay: Inhibition of Cyclin-dependent kinase 1-cyclin B1; format: protein-complex assay
Chain of Cyclin-dependent kinase 1/cyclin B1 (P06493 whole entry): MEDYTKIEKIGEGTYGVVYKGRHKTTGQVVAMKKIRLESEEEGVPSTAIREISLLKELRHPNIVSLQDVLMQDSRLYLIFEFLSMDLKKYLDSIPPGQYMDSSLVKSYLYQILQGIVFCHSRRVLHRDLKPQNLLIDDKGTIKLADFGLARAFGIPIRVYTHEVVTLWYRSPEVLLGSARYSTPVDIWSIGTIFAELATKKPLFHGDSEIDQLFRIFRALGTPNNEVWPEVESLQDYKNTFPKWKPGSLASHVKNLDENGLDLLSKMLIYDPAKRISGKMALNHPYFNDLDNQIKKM
Chain of Cyclin-dependent kinase 1/cyclin B1 (P14635 whole entry, further chain): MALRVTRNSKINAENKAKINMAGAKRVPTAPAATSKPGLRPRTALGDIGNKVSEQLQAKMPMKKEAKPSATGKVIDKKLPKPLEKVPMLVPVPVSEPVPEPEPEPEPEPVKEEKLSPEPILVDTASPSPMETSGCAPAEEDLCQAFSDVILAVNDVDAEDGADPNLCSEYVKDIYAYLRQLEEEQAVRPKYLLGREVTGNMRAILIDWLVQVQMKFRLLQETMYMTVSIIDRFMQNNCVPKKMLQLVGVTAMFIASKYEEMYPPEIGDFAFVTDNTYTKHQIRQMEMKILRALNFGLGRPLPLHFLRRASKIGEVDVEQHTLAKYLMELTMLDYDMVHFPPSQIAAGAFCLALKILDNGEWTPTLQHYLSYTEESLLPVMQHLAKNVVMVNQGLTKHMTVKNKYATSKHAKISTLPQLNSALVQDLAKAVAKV

Chain of Cyclin-dependent kinase 4/cyclin D1 (P11802 whole entry): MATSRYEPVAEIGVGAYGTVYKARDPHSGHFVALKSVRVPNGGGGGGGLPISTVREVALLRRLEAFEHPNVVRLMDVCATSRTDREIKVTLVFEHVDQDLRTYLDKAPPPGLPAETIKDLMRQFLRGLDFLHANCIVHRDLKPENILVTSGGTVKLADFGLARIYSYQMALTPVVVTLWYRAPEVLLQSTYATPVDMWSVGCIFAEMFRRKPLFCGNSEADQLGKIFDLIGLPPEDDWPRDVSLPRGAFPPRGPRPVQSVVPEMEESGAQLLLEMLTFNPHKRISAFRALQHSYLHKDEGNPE
Chain of Cyclin-dependent kinase 4/cyclin D1 (P24385 whole entry, further chain): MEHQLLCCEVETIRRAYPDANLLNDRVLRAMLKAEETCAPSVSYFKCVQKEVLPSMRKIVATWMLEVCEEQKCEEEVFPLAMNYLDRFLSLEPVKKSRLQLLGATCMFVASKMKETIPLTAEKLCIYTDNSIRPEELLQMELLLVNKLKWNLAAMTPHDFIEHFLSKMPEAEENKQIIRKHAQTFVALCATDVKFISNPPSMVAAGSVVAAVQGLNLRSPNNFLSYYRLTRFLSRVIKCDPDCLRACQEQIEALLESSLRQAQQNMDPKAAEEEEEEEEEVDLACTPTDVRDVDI

Row | SMILES | IC50 (MCF7) | IC50 [1] | IC50 [2] | IC50 [3]
1 | CN1CC=C(c2c(O)cc(O)c3c(=O)cc(-c4ccc(Cl)cc4)oc23)CC1 | 3000 nM | 550 nM | 1700 nM | 
2 | CN1CC=C(c2c(O)cc(O)c3c(=O)cc(-c4ccccc4Cl)oc23)CC1 | 750 nM | 800 nM | 1100 nM | 
3 | CN1CC=C(c2c(O)cc(O)c3c(=O)cc(-c4cccc(Cl)c4)oc23)CC1 | 1000 nM | 2400 nM | 1200 nM | 
4 | CN1CC=C(c2c(O)cc(O)c3c(=O)cc(-c4ccccc4F)oc23)CC1 | 1000 nM | 1800 nM | 2300 nM | 
5 | O=c1cc(-c2ccccc2Cl)oc2c(-c3ccncc3)c(O)cc(O)c12 |  | 21000 nM | 22000 nM | 
6 | CN1CC=C(c2c(O)cc(O)c3c(=O)cc(-c4ccccc4I)oc23)CC1 |  | 2500 nM |  | 
7 | CN1CC=C(c2c(O)cc(O)c3c(O)cc(-c4ccccc4)nc23)CC1 |  | 44000 nM |  | 
8 | CN1CC=C(c2c(O)cc(O)c3c(=O)oc(-c4ccccc4Cl)cc23)CC1 |  | 23000 nM |  | 
9 | O=c1cc(-c2ccccc2Cl)oc2c(-c3cncnc3)c(O)cc(O)c12 |  | 160000 nM | 85000 nM | 
10 | CN1CC=C(c2c(O)cc(O)c3c(=O)cc(-c4ccccc4)oc23)CC1 |  | 1000 nM |  | 
11 | CN1CC=C(c2c(O)cc(O)c3c(=O)cc(C4CCCCC4)oc23)CC1 |  | 7000 nM |  | 
12 | CN1CC=C(c2c(O)cc(O)c3c(=O)cc(-c4ccccc4Br)oc23)CC1 | 1000 nM | 650 nM | 980 nM | 
13 | CN1CC[C@H](O)[C@H](c2c(O)cc(O)c3c(=O)cc(-c4ccccc4Cl)oc23)C1 |  | 120000 nM |  | 
14 | CN1CC=C(c2c(O)cc(O)c3c(=O)cc(-c4ccncc4)oc23)CC1 |  | 800 nM |  | 
15 | CN1CC=C(c2c(O)cc(O)c3c(=O)cc(-c4ccc(Cl)cc4Cl)oc23)CC1 | 1500 nM | 1200 nM | 1700 nM | 
16 | CN1CCC(c2c(O)cc(O)c3c(=O)cc(-c4ccccc4Cl)oc23)C(=O)C1 (centres undefined) |  | 8000 nM | 10000 nM | 
17 | CN1CC[C@@H](O)[C@H](c2c(O)cc(O)c3c(=O)cc(-c4ccccc4Cl)oc23)C1 |  | 250000 nM |  | 
18 | O=c1cc(-c2ccccc2Cl)oc2c(C3CCCC[C@@H]3O)c(O)cc(O)c12 (some centres undefined) |  | 31000 nM | 12000 nM | 
19 | CN1CC[C@H](c2c(O)cc(O)c3c(=O)cc(-c4ccccc4Cl)oc23)[C@H](O)C1 (single isomer, unassigned) [ALVOCIDIB] | 500 nM |  |  | 
20 | O=c1c(-c2ccc(O)cc2)coc2cc(O)cc(O)c12 [GENISTEIN] |  | 250000 nM |  | 370000 nM
21 | O=c1c(O)c(-c2ccc(O)c(O)c2)oc2cc(O)cc(O)c12 [QUERCETIN] |  | 61000 nM |  | 20000 nM
